Data from patent US7553867B2, “Furan or thiophene derivative and medicinal use thereof” (Takeda Pharmaceutical Company Limited, priority 2002, dated 2009).

Question: Which melting point does the source give for `Cc1oc(-c2ccc(C(F)(F)F)cc2)cc1COc1ccc(OC(C)(C)C(=O)O)c(F)c1` [Example 6(68), 2-[2-Fluoro-4-({2-methyl-5-[4-(trifluoromethyl)phenyl]-3-furyl}methoxy)phenoxy]-2-methylpropionic acid] here?
Answer: Its melting point is 82 to 83 °C.

Question: With `Cc1oc(-c2ccc(C(F)(F)F)cc2)cc1COc1cccc(COC(C)(C)C(=O)O)c1` [Example 6(70), 2-Methyl-2-{[3-({2-methyl-5-[4-(trifluoromethyl)phenyl]-3-furyl}methoxy)benzyl]oxy}propionic acid] as the molecule, how does the melting point read?
Answer: The melting point was 95 to 96 °C.

Question: With `CCC(Cc1ccc(OCc2cc(-c3ccc(C(F)(F)F)cc3)oc2C)cc1C)C(=O)O` (stereo not shown) [Example 6(75), 2-[2-Methyl-4-({2-methyl-5-[4-(trifluoromethyl)phenyl]-3-furyl}methoxy)benzyl]butanoic acid] as the molecule, how does the melting point read?
Answer: The melting point was 118 to 119 °C.

Question: With `Cc1cc(OCc2cc(-c3ccc(C(F)(F)F)cc3)oc2C)ccc1CC(C)C(=O)O` (stereo not shown) [Example 6(76), 2-Methyl-3-[2-methyl-4-({2-methyl-5-[4-(trifluoromethyl)phenyl]-3-furyl}methoxy)phenyl]propionic acid] as the molecule, how does the melting point read?
Answer: Its melting point is 96 to 97 °C.

Question: Which melting point does the source give for `COC(Cc1ccc(OCc2cc(-c3ccc(C(F)(F)F)cc3)oc2C)cc1C)C(=O)O` (stereo not shown) [Example 6(77), 2-Methoxy-3-[2-methyl-4-({2-methyl-5-[4-(trifluoromethyl)phenyl]-3-furyl}methoxy)phenyl]propionic acid] here?
Answer: The melting point was 125 to 126 °C.

Question: For `Cc1oc(-c2ccc(C(F)(F)F)cc2)cc1COc1ccc(CC(C)(C)C(=O)O)cc1` [Example 6(78), 2,2-Dimethyl-3-[4-({2-methyl-5-[4-(trifluoromethyl)phenyl]-3-furyl}methoxy)phenyl]propionic acid], which melting point is on record?
Answer: Its melting point is 125 to 127 °C.

Question: With `COc1cc(CC(=O)O)ccc1OCc1cc(-c2ccc(C(F)(F)F)cc2)oc1C` [Example 6(81), [3-Methoxy-4-({2-methyl-5-[4-(trifluoromethyl)phenyl]-3-furyl}methoxy)phenyl]acetic acid] as the molecule, how does the melting point read?
Answer: Its melting point is 139 to 140 °C.

Question: With `COc1ccc(CCC(=O)O)cc1OCc1cc(-c2ccc(C(F)(F)F)cc2)oc1C` [Example 6(82), 3-[4-Methoxy-3-({2-methyl-5-[4-(trifluoromethyl)phenyl]-3-furyl}methoxy)phenyl]propionic acid] as the molecule, how does the melting point read?
Answer: Its melting point is 128 to 129 °C.

Question: Which melting point does the source give for `Cc1oc(-c2ccc(C(F)(F)F)cc2)cc1CCOc1cccc(CC(=O)O)c1` [Example 6(83), [3-(2-{2-Methyl-5-[4-(trifluoromethyl)phenyl]-3-furyl}ethoxy)phenyl]acetic acid] here?
Answer: The melting point was 92 to 94 °C.

Question: For `Cc1oc(-c2ccc(C(F)(F)F)cc2)cc1CCCOc1cccc(CC(=O)O)c1` [Example 6(84), [3-(3-{2-Methyl-5-[4-(trifluoromethyl)phenyl]-3-furyl}propoxy)phenyl]acetic acid], which melting point is on record?
Answer: Its melting point is 111 to 113 °C.

Question: Which melting point does the source give for `Cc1oc(-c2ccc(C(F)(F)F)cc2)cc1COc1cccc(C(C)(C)C(=O)O)c1` [Example 6(85), 2-Methyl-2-[3-({2-methyl-5-[4-(trifluoromethyl)phenyl]-3-furyl}methoxy)phenyl]propionic acid] here?
Answer: The melting point was 127 to 128 °C.

Question: For `Cc1oc(-c2ccc(C(F)(F)F)cc2)cc1COc1ccc(C(C)(C)C(=O)O)cc1` [Example 6(86), 2-Methyl-2-[4-({2-methyl-5-[4-(trifluoromethyl)phenyl]-3-furyl}methoxy)phenyl]propionic acid], which melting point is on record?
Answer: The melting point was 105 to 107 °C.

Question: For `Cc1oc(-c2ccc(C(F)(F)F)cc2)cc1COc1cccc(OCC(=O)O)c1` [Example 6(87), [3-({2-Methyl-5-[4-(trifluoromethyl)phenyl]-3-furyl}methoxy)phenoxy]acetic acid], which melting point is on record?
Answer: Its melting point is 118 to 119 °C.

Question: Which melting point does the source give for `Cc1oc(-c2ccc(C(F)(F)F)cc2)cc1COc1ccc(SC(C)(C)C(=O)O)cc1` [Example 6(88), 2-Methyl-2-{[4-({2-methyl-5-[4-(trifluoromethyl)phenyl]-3-furyl}methoxy)phenyl]thio}propionic acid] here?
Answer: Its melting point is 128 to 129 °C.

Question: With `Cc1oc(-c2ccc(C(F)(F)F)cc2)cc1COc1ccc2oc(CCC(=O)O)cc2c1` [Example 6(89), 3-[5-({2-Methyl-5-[4-(trifluoromethyl)phenyl]-3-furyl}methoxy)-1-benzofuran-2-yl]propionic acid] as the molecule, how does the melting point read?
Answer: Its melting point is 156 to 157 °C.

Question: For `Cc1oc(-c2ccc(C(F)(F)F)cc2)cc1COc1ccc2oc(CC(=O)O)cc2c1` [Example 6(90), [5-({2-Methyl-5-[4-(trifluoromethyl)phenyl]-3-furyl}methoxy)-1-benzofuran-2-yl]acetic acid], which melting point is on record?
Answer: The melting point was 140 to 142 °C.

Question: With `CCCc1cc(OCc2cc(-c3ccc(C(F)(F)F)cc3)oc2C)ccc1CCC(=O)O` [Example 6(91), 3-[4-({2-Methyl-5-[4-(trifluoromethyl)phenyl]-3-furyl}methoxy)-2-propylphenyl]propionic acid] as the molecule, how does the melting point read?
Answer: Its melting point is 129 to 131 °C.

Question: Which melting point does the source give for `Cc1oc(-c2ccc(C(F)(F)F)cc2)cc1COc1ccc(OC(C)(C)C(=O)O)c(Cl)c1` [Example 6(92), 2-[2-Chloro-4-({2-methyl-5-[4-(trifluoromethyl)phenyl]-3-furyl}methoxy)phenoxy]-2-methylpropionic acid] here?
Answer: The melting point was 92 to 93 °C.

Question: For `CCc1oc(-c2ccc(C(F)(F)F)cc2)cc1CCCOc1ccc(CC(=O)O)cc1Cl` [Example 6(93), [3-Chloro-4-(3-{2-ethyl-5-[4-(trifluoromethyl)phenyl]-3-furyl}propoxy)phenyl]acetic acid], which melting point is on record?
Answer: Its melting point is 112 to 113 °C.

Question: With `Cc1oc(-c2ccc(C(F)(F)F)cc2)cc1COc1cc(CSC(C)(C)C(=O)O)ccc1F` [Example 6(94), 2-{[4-Fluoro-3-({2-methyl-5-[4-(trifluoromethyl)phenyl]-3-furyl}methoxy)benzyl]thio}-2-methylpropionic acid] as the molecule, how does the melting point read?
Answer: The melting point was 120 to 123 °C.

Question: Which melting point does the source give for `Cc1oc(-c2ccc(C(F)(F)F)cc2)cc1COc1ccc(F)c(CSC(C)(C)C(=O)O)c1` [Example 6(95), 2-{[2-Fluoro-5-({2-methyl-5-[4-(trifluoromethyl)phenyl]-3-furyl}methoxy)benzyl]thio}-2-methylpropionic acid] here?
Answer: Its melting point is 131 to 132 °C.

Question: Which melting point does the source give for `Cc1oc(-c2ccc(C(F)(F)F)cc2)cc1COc1cccc(CSC(C)(C)C(=O)O)c1F` [Example 6(96), 2-{[2-Fluoro-3-({2-methyl-5-[4-(trifluoromethyl)phenyl]-3-furyl}methoxy)benzyl]thio}-2-methylpropionic acid] here?
Answer: Its melting point is 106 to 108 °C.

Question: Which melting point does the source give for `CCc1oc(-c2ccc(C(F)(F)F)cc2)cc1CCCOc1cccc(CC(=O)O)c1F` [Example 6(97), [3-(3-{2-Ethyl-5-[4-(trifluoromethyl)phenyl]-3-furyl}propoxy)-2-fluorophenyl]acetic acid] here?
Answer: The melting point was 92 to 93 °C.

Question: For `CCc1oc(-c2ccc(C(F)(F)F)cc2)cc1CCCOc1cc(CC(=O)O)ccc1Cl` [Example 6(98), [4-Chloro-3-(3-{2-ethyl-5-[4-(trifluoromethyl)phenyl]-3-furyl}propoxy)phenyl]acetic acid], which melting point is on record?
Answer: Its melting point is 104 to 105 °C.

Question: For `Cc1oc(-c2ccc(C(F)(F)F)cc2)cc1COc1cc(CSC(C)(C)C(=O)O)ccc1Cl` [Example 6(99), 2-{[4-Chloro-3-({2-methyl-5-[4-(trifluoromethyl)phenyl]-3-furyl}methoxy)benzyl]thio}-2-methylpropionic acid], which melting point is on record?
Answer: Its melting point is 140 to 142 °C.
